The data set has as its target T1, hOATP1B1 (Homo sapiens, UniProt Q9Y6L6).
T1 construct: expressed in transfected cells; host or cells: 293 cells (control: empty vector)
T1 sequence (Q9Y6L6 1-691): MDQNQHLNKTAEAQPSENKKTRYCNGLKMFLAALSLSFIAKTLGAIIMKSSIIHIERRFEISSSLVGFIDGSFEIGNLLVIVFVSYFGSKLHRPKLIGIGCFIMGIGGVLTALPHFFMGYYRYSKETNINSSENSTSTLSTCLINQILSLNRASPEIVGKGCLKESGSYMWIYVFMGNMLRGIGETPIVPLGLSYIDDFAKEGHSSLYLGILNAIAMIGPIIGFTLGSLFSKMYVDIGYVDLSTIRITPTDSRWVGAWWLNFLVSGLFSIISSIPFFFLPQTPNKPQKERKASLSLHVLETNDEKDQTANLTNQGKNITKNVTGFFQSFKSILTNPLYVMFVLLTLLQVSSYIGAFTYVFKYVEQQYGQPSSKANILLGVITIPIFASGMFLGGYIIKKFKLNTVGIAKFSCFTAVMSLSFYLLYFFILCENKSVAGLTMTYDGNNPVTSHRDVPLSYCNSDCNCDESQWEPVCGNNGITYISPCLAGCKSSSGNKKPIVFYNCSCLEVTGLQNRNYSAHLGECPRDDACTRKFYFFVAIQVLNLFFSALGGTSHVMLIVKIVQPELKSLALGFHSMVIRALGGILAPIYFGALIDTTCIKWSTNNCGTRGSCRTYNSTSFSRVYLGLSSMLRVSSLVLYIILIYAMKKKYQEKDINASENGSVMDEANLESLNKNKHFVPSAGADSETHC
Description: Inhibition of hOATP1B1-mediated 3H-estrone sulfate uptake, stably transfected 293 cells. The format is cell-based. The settings on record: substrate 0.01 μM 3H-estrone sulfate, median (95% CI). An excerpt: We characterized the inhibitory potential of iohexol on major drug transporters recommended by regulatory agencies, which were previously assessed in a clinical transporter phenotyping cocktail study. These transporters include hOAT1, hOAT3, hOCT1, hOCT2, hMATE1, hMATE2K, human organic anion transporter polypeptides (hOATP)1B1, hOATP1B3, and human multidrug resistance protein (hMDR)1. Additionally, we investigated whether iohexol is a substrate for any of the renal transporters among these, including hOAT1/3, hOCT1/2, and hMATE1/2K. Cell‐based uptake assays were used to assess the activities of hOAT1/3, hOCT1/2, hMATE1/2K, and hOATP1B1/1B3. Inside‐out membrane vesicle uptake assays were used to evaluate the activity of hMDR1.
To determine the maximal inhibitory potential of iohexol, intracellular accumulation of a standard substrate was measured with and without the clinically relevant highest concentrations of iohexol. Control inhibitors were tested in each experiment.
In all subsequent in vitro studies, control experiments were conducted to validate the results. […] Each condition, including cells or vesicles with the transporter and their respective controls, was analyzed in at least three replicates. […]
Uptake assays were carried out with stably transfected 293 cells expressing hOATP1B1 or hOATP1B3, as well as cells containing an empty vector, using the method described by Hsin CH, et al..^1 For the inhibition assays, cells were incubated with the radiolabeled standard substrates specific to each transporter: 0.01 μM ^3H-estrone sulfate for hOATP1B1, and 0.02 μM ^3H-bromosulphophthalein (BSP) for hOATP1B3. […] The accumulation of radio-labelled probe substrates (^3H) in the cell lysate is determined using a Tri-Carb 2810 liquid scintillation counter (PerkinElmer, Waltham, MA, USA) as described previously.^1 Cellular protein amount was determined in parallel from 6 paired wells per cell line and experimental day, using the Bradford method.^2 The 1X lysis buffer (5X lysis buffer from Promega, diluted 1+4 [v/v] in ddH2O) was used as the lysis buffer. […]

For the molecule `CC(=O)N(CC(O)CO)c1c(I)c(C(=O)NCC(O)CO)c(I)c(C(=O)NCC(O)CO)c1I` (stereo not drawn) [iohexol], the “Inhibitory effect (% reduction of specific activity)” value (20 mM iohexol) is recorded as “no notable inhibitory effects”. In addition, where the note is “human, stably transfected 293 cells expressing hOATP1B1, probe 3H-estrone sulfate, 2 mM iohexol, read-out: Inhibitory effect (% reduction of specific activity)”, the inhibition at 1 min, 2 mM is -6.9%. In addition, the inhibition at 1 min, 20 mM (human, stably transfected 293 cells expressing hOATP1B1, probe 3H-estrone sulfate, 20 mM iohexol, read-out: Inhibitory effect (% reduction of specific activity)) came out at 5.5%.

These data come from article PMC11788587, “Validating Low‐Dose Iohexol as a Marker for Glomerular Filtration Rate by In Vitro and In Vivo Studies” (Clinical and Translational Science, 2025).
